From publication PMC11206913, “Amoebicidal Effect of COVID Box Molecules against Acanthamoeba: A Study of Cell Death” (Pharmaceuticals, 2024)

Columns and labels:
[1] = test system: murine macrophages J774A.1; assay: Cytotoxicity against murine macrophages, alamarBlue; assay type: cell-based
Experimental: The cytotoxicity of the COVID Box compounds was evaluated against murine macrophages of the J774A.1 cell line (ATCC TIB-67), as previously described. As mentioned in the trophocidal assay, cells were allowed to adhere on a 96-well plate in 37 °C in a 5% CO2 humidified incubator. Later, a well-defined volume of the compounds was added at an affinal concentration of 10 µM to each well. Fluorescence emitted by the alamarBlue^TM was measured after 24 h of incubation and the percentage inhibition value was determined. The Cytotoxicity Concentration 50 (CC50) value of Almitrine and Terconazole was determined following the same method described previously for the trophocidal effect.

[2] = test system: A. griffini trophozoites; assay: Trophocidal activity, alamarBlue assay; assay type: cell-based; conditions: Acanthamoeba griffini, read-out: IC50 trophocidal effect
Experimental: (§1) The trophocidal effect of the 160 molecules from the COVID Box was determined using the alamarBlue™ (Life Technologies, Madrid, Spain) assay as previously described with modifications. Briefly, Acanthamoeba castellanii Neff trophozoites were first seeded in triplicate on a 96-well microtiter plate with 99 μL from a stock solution of 5 × 10^4 cells mL^−1. Subsequently, 1 μL of each compound was added to each well to assess the in vitro amoebicidal activity at 10 μM as the final concentration. Finally, 10 µL of alamarBlue™ Cell Viability Reagent (Bioresource, Europe, Nivelles, Belgium) was added into each well. The plates were then incubated for 96 h at 28 °C with a slight agitation. An EnSpire microplate reader (PerkinElmer, Waltham, MA, USA) was used to measure fluorescence at 570/585 nm. Then, the percentage of inhibition value of the tested COVID Box compounds was determined in comparison with the negative control.
(§2) Almitrine and Terconazole were the COVID Box products selected to evaluate the amoebicidal effect against the trophozoite stage of […] strains of Acanthamoeba: A. castellanii Neff, A. griffini, A. polyphaga, A. culbertsoni, and A. castellanii L10. The inhibition concentration 50 (IC50) value was calculated based on the alamarBlue™ assay, as previously mentioned.

[3] = test system: Acanthamoeba culbertsoni trophozoites; assay: Trophocidal activity, alamarBlue assay; assay type: cell-based; conditions: read-out: IC50 trophocidal effect
Experimental: as §1, §2

[4] = test system: A. castellanii L10 cysts; assay: Cysticidal activity, alamarBlue method; assay type: cell-based, Acanthamoeba castellanii L10; conditions: Acanthamoeba castellanii, read-out: IC50 cysticidal effect
Experimental: (§3) Based on the amoebicidal and cytotoxicity results, the selected compounds, Almitrine and Terconazole, were further investigated on the cyst stage of the various Acanthamoeba strains: A. castellanii Neff, A. griffini, A. polyphaga, A. culbertsoni, and A. castellanii L-10. The cysticidal activity was assessed by the alamarBlue™ method, as described previously. Briefly, in a 96-well plate, a serial dilution of the mentioned drugs was first conducted. Later, cysts were resuspended in PYG medium and were added into each well at a concentration of 5 × 10^4 cysts mL^−1. The plates were examined over a week using an inverted microscope. After 7 days of incubation, the plates were centrifuged at 3000 rpm and the medium was replaced with a new PYG. Finally, 10 μL of alamarBlue^TM Cell Viability Reagent (Biosource, Europe, Nivelles, Belgium) was placed into each well, and the plates were incubated at 28 °C with slight agitation. The emitted fluorescence was measured after 144 h.

[5] = test system: A. castellanii Neff cysts; assay: Cysticidal activity, alamarBlue method; assay type: cell-based; conditions: Acanthamoeba castellanii, read-out: IC50 cysticidal effect
Experimental: as §3

[6] = Solubility (remark); assay type: physicochemical; conditions: reason for discarding
[7] = test system: A. castellanii L10 trophozoites; assay: Trophocidal activity, alamarBlue assay; assay type: cell-based; conditions: Acanthamoeba castellanii, read-out: IC50 trophocidal effect
Experimental: as §1, §2

[8] = test system: A. polyphaga trophozoites; assay: Trophocidal activity, alamarBlue assay; assay type: cell-based; conditions: Acanthamoeba polyphaga, read-out: IC50 trophocidal effect
Experimental: as §1, §2

[9] = test system: A. polyphaga cysts; assay: Cysticidal activity, alamarBlue method; assay type: cell-based; conditions: Acanthamoeba polyphaga, read-out: IC50 cysticidal effect
Experimental: as §3

[10] = test system: Acanthamoeba culbertsoni trophozoites; assay: Mitochondrial membrane potential, JC-1 dye; assay type: cell-based; conditions: IC90, 24 h
Experimental: (§4) Acanthamoeba culbertsoni cells were incubated with IC90 of Terconazole for 24 h. All mean fluorescence intensities were quantified using EVOS M5000 (Life Technologies, Madrid, Spain), processing three different observations in triplicate using an objective (×40), and images of single cells were obtained by a Leica DMI 4000 B inverted confocal microscope with a 63× objective (Leica Microsystems, Germany). All assays were performed in triplicate.
Based on the JC-1 state and the emitted fluorescence, we distinguished two sets in the cellular population: live cells emit high red fluorescence and affected cells with collapsed mitochondrial membrane potential emit a higher green fluorescence.

[11] = test system: Acanthamoeba culbertsoni; assay: ATP assay, CellTiter-Glo; assay type: cell-based; conditions: IC90, 24 h of treatment
Experimental: as §4
After 24 h of drug treatment, the intracellular ATP content was measured using a CellTiter-Glo Luminescent Cell Viability Assay (Promega, Madison, WI, USA). The experiment was carried out according to the manufacturer’s instructions, and the luminescence intensity was measured in a white 96-well plate using an EnSpire® Multimode Plate Reader.

[12] = test system: Acanthamoeba culbertsoni trophozoites; assay: ROS generation, CellROX Deep Red staining; assay type: cell-based; conditions: IC90, 24 h
Experimental: as §4
The overproduction of intracellular ROS was measured using the CellROX® Deep red fluorescent probe (Invitrogen, Madrid, Spain).

[13] = test system: Acanthamoeba culbertsoni; assay: Plasma membrane permeability, SYTOX Green; assay type: cell-based; conditions: IC90, 24 h
Experimental: as §4
The effect of the study drug on the cell’s membrane permeability was assessed using specific DNA staining. SYTOX® Green (Molecular Probes, Invitrogen, Madrid, Spain) is a DNA-specific dye impermeable to the cells, whose fluorescence increases 500× upon fixation to the DNA. Briefly, […] trophozoites were incubated for 24 h with IC90 of the drug solution. Subsequently, the SYTOX® Green dye was added at a final concentration of 1 μM for 15 min in the dark.

[14] = test system: Acanthamoeba culbertsoni; assay: Chromatin condensation, Hoechst 33342/PI double stain; assay type: cell-based; conditions: IC90, 24 h
Experimental: as §4
A double-stain apoptosis detection kit (Chromatin Condensation/Dead Cell Apoptosis Kit) with Hoechst 33342 and Propidium Iodide (Invitrogen, Madrid, Spain) were used. The experiment was carried out by following the manufacturer’s recommendations.

[15] = test system: Acanthamoeba culbertsoni trophozoites; assay: Actin staining with phalloidin-TRITC; assay type: cell-based; conditions: IC90
Experimental: As in the immunofluorescence staining, cells were first treated with IC90 of Terconazole and fixed with formaldehyde (4%) over a gelatin-precoated coverslip. Later, the cells were permeabilized with Triton (0.1%), followed by a 1 h incubation with phalloidin–tetramethylrhodamine B isothiocyanate (phalloidin-TRITC; Sigma-Aldrich, Madrid, Spain) at room temperature. Cells were finally washed with PBS 1X and mounted using mounting medium with DAPI. Cells were examined by Z-stack imaging using a Leica DMI 4000 B inverted confocal microscope with a 63× objective (Leica Microsystems, Wetzlar, Germany), a 405 nm laser, and a 532 nm laser.

[16] = test system: Acanthamoeba culbertsoni trophozoites; assay: Immunofluorescence staining of tubulin; assay type: cell-based; conditions: IC90, 24 h
Experimental: Immunofluorescence staining of tubulin was performed according to the manufacturer’s staining procedure (Sigma-Aldrich, Madrid, Spain) with slight modifications. Briefly, cells were treated first with Terconazole at IC90. After 24 h of incubation, 50 µL of treated and untreated cell suspensions was placed on a gelatin precoated coverslip for 30 min. Cells were first fixed with formaldehyde (4%) and later permeabilized with Triton (0.3%) for 10 min. Washed with PBS (3X), cells were treated with 5% BSA in PBS 1X/150 mM sucrose for 30 min and washed with glycine 100 mM. At this stage, the trophozoites were incubated with a monoclonal antibody, Anti-α-Tubulin (1:2000), for 2 h at room temperature. Washed twice with PBS, cells were then incubated with the second antibody labeled with Alexa 594 (1:500; from Thermo Fisher Scientific, Rockford, IL, USA) for an hour at room temperature in darkness. Finally, cells were washed with PBS 1X and mounted using mounting medium with DAPI (Sigma-Aldrich; Madrid, Spain). Three-dimensional and maximum projection imaging of the trophozoites was performed by Z-stack imaging using a Leica DMI 4000 B inverted confocal microscope with LAS X software (Leica DMI 4000 B inverted confocal microscope), a 405 nm laser and a 532 nm laser, and a Leica HCX PL Apo 63× Oil Objective.

[17] = test system: Acanthamoeba castellanii L10 trophozoites; assay: Comparative label-free proteomics; assay type: cell-based; conditions: IC50, 24 h
Experimental: The proteomic analysis was conducted according to Arbon et al., 2022 [39]. A quantity of 10^6 cells was first incubated with Terconazole at IC50 for 24 h, then treated and untreated cells were centrifuged and washed with PBS. Both groups were prepared in three biological replicates. The assay was conducted as detailed in our previous work. Results were analyzed using STRING free software and GraphPad 9 prism (Supplementary Material File S2).

[18] = test system: Naegleria fowleri; parameters: method as in PMID 38718717; conditions: previous work of the authors; read-out: IC50 against Naegleria fowleri; cited from earlier work

| SMILES | cytotoxicity compared between the two drugs [1] | IC50 [2] [µM] | IC50 [3] [µM] | IC50 [4] [µM] | IC50 [5] [µM] | solubility [6] | IC50 [7] [µM] | IC50 [8] [µM] | IC50 [9] [µM] | decrease in the MMP (ratio red/green JC-1 fluorescence) compared to untreated cells [10] [%] | inhibition in the total ATP level relative to negative control [11] [%] | ROS production (CellROX Deep Red fluorescence) [12] | plasma membrane permeability (SYTOX green fluorescence) [13] | chromatin condensation (Hoechst/PI staining) [14] | actin distribution (phalloidin-TRITC fluorescence) [15] | tubulin network (immunofluorescence) [16] | affected proteins activated [17] [%] | affected proteins downregulated [17] [%] | proteins at least twofold differentially expressed ([17]; of 4566 identified proteins) [proteins] | IC50 [18] [µM] |
| --- | --- | --- | --- | --- | --- | --- | --- | --- | --- | --- | --- | --- | --- | --- | --- | --- | --- | --- | --- | --- |
| C=CCNc1nc(NCC=C)nc(N2CCN(C(c3ccc(F)cc3)c3ccc(F)cc3)CC2)n1 [Almitrine] | lower cytotoxicity than Terconazole | 5.2 ± 0.4 | 32.08 ± 0.06 | 8.76 ± 0.07 | 51.7 ± 2.13 | low solubility |  |  |  |  |  |  |  |  |  |  |  |  |  |  |
| CC(C)N1CCN(c2ccc(OCC3COC(Cn4cncn4)(c4ccc(Cl)cc4Cl)O3)cc2)CC1 (stereo not drawn) [Terconazole] |  |  |  |  | 10.2 ± 2.01 |  | 9.07 | 4.62 | 2.24 ± 0.5 | 50 | 62.5 ± 2.36 | significantly higher fluorescence than the untreated cells | statistically higher green fluorescence than the negative control | presence of intensely bright blue, fluorescent cells | lower fluorescence than the untreated cells | highly reduced cell shape with lower fluorescence | 20 | 80 | 223 | 3.68 ± 0.61 |
